Measurements from PMC3411647 (PLoS ONE, 2012).

What was measured:
hH3R = target: T1, hH3R (Homo sapiens, UniProt Q9Y5N1); assay: Saturation radioligand binding (Scatchard) of [3H]N-α-methylhistamine (0.03-50 nM) to membranes of HEK-293 cells expressing hH3R, 50 mM Tris-HCl pH 7.4, room temperature.
T1 construct: gene HRH3; recombinant, cDNA from human thalamus RNA (AF140538), stably expressed in HEK-293 cells; vectors pCMV-Flag and pEGFP-N1
Procedure: (§1) HEK-293 cells stably expressing H3R were harvested and resuspended in ice-cold 50 mM Tris-HCl (pH 7.4) containing a complete protease inhibitor cocktail tablet and mixed by inverting. The cell pellet was homogenized with a Polytron PT 1200 set at 4000 rpm and centrifuged at 1,000 g for 5 min. The supernatant was then centrifuged twice at 50,000 g for 30 min at 4°C. Finally, the resulting pellet was gently suspended in 50 mM Tris-HCl (pH 7.4) buffer and the membrane concentration was determined using Bio-Rad protein assays.
The membranes (50 µg of protein) were incubated with [^3H] N-α-methylhistamine at various concentrations (from 0.03 nM to 50 nM) for saturation binding assays. For competitive binding assays, the membranes (50 µg of protein) were incubated with 10 nM [^3H] N-α-methylhistamine for recombinant hH3R or 2nM [^3H] N-α-methylhistamine for rat brain H3R in the presence of various compound concentrations in the buffer (50 mM Tris–HCl, pH 7.4). The reaction mixtures were incubated for 90–120 min at room temperature to achieve binding equilibrium. Following three washes, the membrane-bound radioactivity was measured on a Topcount (PerkinElmer) at 20°C. […] IC50 values were converted to Ki values using the Cheng-Prusoff equation. […] All data were analyzed by nonline arregression using GraphPad Prism version 4.0 software.

rat brain H3R = target: T2, rat brain H3R (Rattus norvegicus, UniProt Q9QYN8); assay: Competitive/saturation binding with [3H]N-α-methylhistamine, rat cerebral cortex membranes; conditions: saturation binding, rat cerebral cortex
T2 construct: from tissue; host or cells: rat cerebral cortex membranes
T2 sequence (Q9QYN8 whole entry): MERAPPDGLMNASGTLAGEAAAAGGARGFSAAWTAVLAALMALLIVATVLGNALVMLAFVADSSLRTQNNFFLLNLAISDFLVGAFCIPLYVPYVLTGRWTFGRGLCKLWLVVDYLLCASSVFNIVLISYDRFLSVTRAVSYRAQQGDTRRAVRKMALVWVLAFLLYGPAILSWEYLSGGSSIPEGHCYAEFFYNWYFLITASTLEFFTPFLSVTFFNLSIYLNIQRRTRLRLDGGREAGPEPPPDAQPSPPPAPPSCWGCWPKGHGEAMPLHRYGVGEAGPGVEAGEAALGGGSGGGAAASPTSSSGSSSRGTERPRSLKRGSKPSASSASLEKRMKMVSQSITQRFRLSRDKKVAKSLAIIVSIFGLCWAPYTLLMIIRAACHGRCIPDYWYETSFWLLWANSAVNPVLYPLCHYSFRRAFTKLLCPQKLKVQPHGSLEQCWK
Procedure: (§2) Figure 4 Competition binding experiments with [^3H]-N-α-methylhistamine. […] The presented data are the means ±SE of values from a single experiment performed in duplicate and are representative of three to six separate experiments.
(§3) The membranes (50 µg of protein) were incubated with [^3H] N-α-methylhistamine at various concentrations (from 0.03 nM to 50 nM) for saturation binding assays. For competitive binding assays, the membranes (50 µg of protein) were incubated with 10 nM [^3H] N-α-methylhistamine for recombinant hH3R or 2nM [^3H] N-α-methylhistamine for rat brain H3R in the presence of various compound concentrations in the buffer (50 mM Tris–HCl, pH 7.4). […] Following three washes, the membrane-bound radioactivity was measured on a Topcount (PerkinElmer) at 20°C. […] IC50 values were converted to Ki values using the Cheng-Prusoff equation. Each experiment was performed in duplicate and repeated three to six times. All data were analyzed by nonline arregression using GraphPad Prism version 4.0 software.

H3R [1] = target: T3, H3R (Homo sapiens, UniProt Q9Y5N1); assay: H3R internalization, cell-surface ELISA in HEK-293 cells stably transfected with Flag-H3R; type: cell-based; conditions: 100 µM, 45 min at 37°C
T3 construct: expressed in transfected cells
T3 sequence (Q9Y5N1 whole entry): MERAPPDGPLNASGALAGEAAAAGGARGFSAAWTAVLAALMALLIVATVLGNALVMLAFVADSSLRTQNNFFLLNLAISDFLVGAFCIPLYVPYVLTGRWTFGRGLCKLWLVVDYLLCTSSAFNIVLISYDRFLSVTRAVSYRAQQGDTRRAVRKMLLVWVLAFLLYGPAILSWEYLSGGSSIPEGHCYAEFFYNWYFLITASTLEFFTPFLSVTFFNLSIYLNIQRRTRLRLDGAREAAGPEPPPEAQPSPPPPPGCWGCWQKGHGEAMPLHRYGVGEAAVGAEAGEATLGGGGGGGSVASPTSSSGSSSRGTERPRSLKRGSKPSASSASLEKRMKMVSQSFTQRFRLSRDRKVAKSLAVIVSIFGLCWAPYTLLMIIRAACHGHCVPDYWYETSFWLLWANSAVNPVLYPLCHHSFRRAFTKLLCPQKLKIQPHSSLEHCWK
Procedure: ELISA data are expressed as the percentage of receptors detected on the surface of agonist-untreated cells expressing H3R. Error bars represent the SEM for four replicates.
The cell surface expression of H3R was quantitatively assessed by ELISA and performed as described previously. Briefly, HEK-293 cells stably transfected with the pCMV-H3R construct were seeded in 48-well dishes coated with poly-L-lysine. […] Medium was aspirated and the cells were washed once with Tris-buffered saline (TBS). […] Cells were then incubated for 1 h with an alkaline phosphatase-conjugated monoclonal antibody directed against the Flag epitope and diluted 1∶1,000. Cells were washed 3 times, and antibody binding was visualized by adding 0.25 mL of an alkaline phosphatase substrate (Bio-Rad). Development was stopped by adding 0.1 mL of the substrate to a 96-well microtiter plate containing 0.1 mL of 0.4 M NaOH.

H3R-EGFP = target: T4, H3R-EGFP (Homo sapiens, UniProt Q9Y5N1); assay: Recycling of internalized H3R-EGFP to the cell surface, confocal microscopy; type: cell-based; conditions: 20 µM ZEL-H16 or 500 µM histamine for 30 min, cycloheximide 100 µg/ml
T4 construct: expressed in transfected cells
T4 sequence (Q9Y5N1 whole entry): as above
Procedure: Figure 6 Localization of internalized H3R-EGFP stably expressed in HEK-293 cells and recycling of internalized H3R to the cell surface. […] All pictures shown are representative of at least three independent experiments.
HEK-293 cells stably expressing H3R-EGFP were seeded in covered glass-bottom 6-well plates. […] After fixing the cells with 4% paraformaldehyde for 10 min, cells were mounted in mounting reagent (DTT/PBS/glycerol). Confocal images were taken on a Zeiss LSM 510 microscope with an attached Axiovert 200 microscope and LSM5 computer system. Images were collected using QED camera software and processed with Adobe Photoshop.

H3R [2] = target: T5, H3R (Cavia porcellus, UniProt Q9JI35); assay: Guinea-pig ileum bioassay, inhibition of electrically induced twitch
T5 construct: from tissue; host or cells: guinea-pig ileum segments
T5 sequence (Q9JI35 whole entry): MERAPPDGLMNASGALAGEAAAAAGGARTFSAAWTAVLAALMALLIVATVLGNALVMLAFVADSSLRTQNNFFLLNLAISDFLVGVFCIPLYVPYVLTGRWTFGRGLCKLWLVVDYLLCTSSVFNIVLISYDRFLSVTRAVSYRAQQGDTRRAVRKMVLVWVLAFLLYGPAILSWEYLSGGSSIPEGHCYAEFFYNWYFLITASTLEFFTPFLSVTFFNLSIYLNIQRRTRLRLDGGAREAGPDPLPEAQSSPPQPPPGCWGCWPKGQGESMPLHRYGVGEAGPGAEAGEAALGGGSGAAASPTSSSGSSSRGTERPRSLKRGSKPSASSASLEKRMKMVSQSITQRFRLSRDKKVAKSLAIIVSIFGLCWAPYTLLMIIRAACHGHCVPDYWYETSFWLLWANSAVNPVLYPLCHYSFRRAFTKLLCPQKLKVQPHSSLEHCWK
Procedure: Each point is the mean ± s.e.m. of three to six separate experiments.
The procedure used was as described previously. Adult male guinea pigs (300–500 g) were killed by cervical dislocation. The ileum was removed at a point 20 cm from the caecum and flushed with and placed in modified K–H buffer of following composition: 118 mM NaCl, 5.9 mM KCl, 1.2 mM CaCl2, 1.2 mM MgSO4, 1 mM Na2HPO4, 25 mM NaHCO3 and 10 mM D-glucose. Ileum segments (2.5–3 cm) were suspended in 20 ml organ baths containing K–H buffer maintained at 37°C and gassed with 95% O2/5% CO2. Contractile activity under stimulation (rectangular pulses of 15 V, 0.5 ms, and 0.1 Hz) was recorded using isometric transducers (Grass FTO3). […] Mepyramine ([…]) and famotidine ([…]) (Sigma-Aldrich, St. Louis, MO) were added to the K–H buffer to block postsynaptic H1 and presynaptic H2 receptors, respectively.

[3] = target: T6, human histamine H3 receptor (Homo sapiens, UniProt Q9Y5N1); assay: Competitive/saturation binding with [3H]N-α-methylhistamine, H3R/HEK-293 cell membranes
T6 construct: expressed in transfected cells
T6 sequence (Q9Y5N1 whole entry): as the sequence (Q9Y5N1 whole entry) above
Procedure: as §2, §1, §3

histamine H4 receptor = conditions: cited from earlier work
H3R [4] = target: T3, H3R; assay: ERK1/2 phosphorylation (Western blot) in HEK-293 cells stably expressing H3R; type: cell-based
Procedure: Figure 7 Phosphorylation of ERK1/2 induced by ZEL-H16 in H3R-expressing HEK-293 cells. […] Signals were quantified by densitometric image analysis and p-ERK was normalized to a loading control (ERK). […] Concentration -dependent phosphorylation signals were quantified by densitometric analysis and p-ERK levels were normalized to total ERK levels. […] C, The phosphorylation of ERK1/2 induced by ZEL-H16 could be entirely abolished by co-incubation with H3R antagonist thioperamide (***p<0.001). Data represent the mean ±SE of three independent experiments.
HEK-293 cells stably expressing human H3R were grown in a 6-well plate and were serum starved 2 h in serum-free culture medium prior to stimulation. Cells were stimulated with the indicated H3R ligands at the designated concentrations. Incubations were stopped at the indicated times by removing the stimulation medium by aspiration. The cells were washed in ice-cold PBS and subsequently lysed in 100 µl of lysis buffer [20 mM HEPES (pH 7.5), 10 mM EDTA, 150 mM NaCl, 1% Triton X-100, and one tablet of complete protease inhibitor (Roche, Indianapolis, IN) per 50 mL] at 4°C on a rocker for 30 min. The lysates were centrifuged and separated by sodium dodecyl sulfate-polyacrylamide (12%) gel electrophoresis (SDS-PAGE) and blotted onto polyvinylidene difluoride membranes. Membranes were blocked for 1 h at room temperature in TBST (10 mmol/L Tris, 150 mmol/L NaCl, 0.1% Tween-20, pH 8.0) buffer containing 5% (v/w) skim milk. Membranes were probed overnight with primary antibodies against p-ERK1/2 (1∶1,000; Cell Signaling, Danvers, MA) in TBST containing 5% (v/w) BSA, and then probed with horseradish peroxidase-labeled secondary antibody (1∶5,000) for 1 h at room temperature in TBST containing 5% (v/w) milk powder. Immunoreactivity was detected by ECL assays. The blots were stripped and reprobed using antibodies against total ERK1/2 (1∶2,000) (Cell Signaling, Danvers, MA) as a control.

mouse H3R = target: T7, mouse H3R (Mus musculus, UniProt P58406); assay: ERK1/2 phosphorylation in neonatal mouse cortical neuron cultures; type: cell-based
T7 construct: endogenous in cells; host or cells: primary cortical neurons of neonatal ICR mice
T7 sequence (P58406 whole entry): as the sequence (Q9QYN8 whole entry) above, with T15A, A286T, A290G, R387H, I389V counted along it
Procedure: Figure 8 Phosphorylation of ERK1/2 induced by ZEL-H16 in mouse cortical neurons. A, Time-dependent phosphorylation of ERK1/2 induced by 5 µM ZEL-H16 in neonatal mouse cortical neuron cultures. B, The phosphorylation of ERK1/2 induced by 50 µM ZEL-H16 for 20 min was mostly abolished by 100 ng/mL PTX or 10 µM thioperamide. Signals were quantified by densitometric image analysis and p-ERK was normalized to a loading control (ERK). The signal at each point is expressed as the percentage of the maximal p-ERK signal induced by ZEL-H16. Data represent the mean ±SE of three independent experiments.
Neuronal cortical cultures were prepared from neonatal ICR mice. Cerebral cortices were dissociated in sterile Dulbecco’s phosphate-buffered saline (D-PBS; Sigma-Aldrich, St. Louis, MO), and the neurons were isolated in the same medium containing 0.5% trypsin at 37°C for 10 min. After centrifugation, dissociated neurons were re-suspended in neurobasal medium (NBM; Gibco, Carlsbad, CA) supplemented with 2% B-27 and 0.5 mmol/L-glutamine (Gibco, Carlsbad, CA) and then plated on 48-well plates at a density of approximately 1.3×10^6 per well. After 7 days of culture, the neurons were serum starved for approximately 3 h prior to drug treatment. […]

T1 sequence (Q9Y5N1 whole entry): as the sequence (Q9Y5N1 whole entry) above

CNCCc1c[nH]cn1 [[^3H]N-α-methylhistamine, [3H]N-alpha-methylhistamine]
Kd (hH3R): 710 pM

CNCCc1cnc[nH]1 [[^3H]N-α-methylhistamine, reference compound]
Kd (rat brain H3R): 830 pM

NCCc1c[nH]cn1 [histamine, reference compound]
loss in the expression of the receptors on the cell surface (internalization) (H3R [1]): 18–20%
time for internalized H3R to recycle to the cell surface after agonist removal (H3R-EGFP): ≤ 1 h
efficacy of inhibition of the contractions of the guinea pig ileum (H3R [2]; electrically induced twitch, mepyramine and famotidine present): 54.52±0.99%
EC50 (H3R [2]; inhibition of electrically induced twitch, read-out: pD 2 (converted)): 95500 pM

N=C(N)SCCc1c[nH]cn1 [imetit, S-[2-(4-imidazolyl)ethyl]isothiourea, reference compound]
Ki [3]: 900 ± 60 pM
loss in the expression of the receptors on the cell surface (internalization) (H3R [1]): 18–20%

c1nc(CC2CCNCC2)c[nH]1 [immepip, 4-(1H-imidazol-4-ylmethyl)piperidine]
pKi (histamine H4 receptor): 7.66

S=C(NC1CCCCC1)N1CCC(c2cnc[nH]2)CC1 [thioperamide]
effect on ERK1/2 phosphorylation induced by 50 µM ZEL-H16 (H3R [4]): completely abolished
effect on ERK phosphorylation induced by 50 µM ZEL-H16 at 20 min (mouse H3R): abolish most of the stimulatory effects
